Values of other authors as cited in US20250356959A1, “Toxicity Prediction Of Compounds In Cellular Structures” (Sanofi, priority 2022, published 2025).

Test system: liver cells
Details: positive control, 60 micro moles

In the case of `CN(C)CCCN1c2ccccc2Sc2ccc(Cl)cc21` [CPZ, Chlorpromazine], the “known toxic effect of reference compound” value is listed as “toxic to liver cells and triggers cholestasis”.
